Results on two compounds are retold here after US7872030B2, “Use of 2-[5-(4-fluorophenyl)-3-pyridylmethylaminomethyl]-chromane and its physiologically acceptable salts” (Merck Patent GmbH, priority 2001, dated 2011).

The test system of experiment [1] is catalepsy induced by haloperidol. Nature of the experiment: Catalepsy induced by conventional antidopaminergic drugs such as haloperidol. The class given is in vivo, rat. To be noted: same dose-range as effective in the animal models. Here is the method: Extrapyramidal motor side effects in e.g. rodents are measured by the ability of a drug to induce catalepsy. Catalepsy is defined as a state where an animal continues to remain in an unnormal (nonphysiological ‘uncomfortable’) posture for a long time (e.g.: M. E. Stanley and S. D. Glick, Neuropharmacology, 1996; 15: 393-394; C. J. E. Niemegeers and P. Janssen, Life Sci., 1979, […]). For example, if a hindpaw of a rat is placed on an elevated level, e.g. a platform elevated 3 cm above ground level, a normal rat immediately withdraws the hindpaw from the platform to the ground level. A cataleptic rat remains in this unnatural posture even for minutes.

Experiment [2] concerns patients with Huntington's disease. Nature of the experiment: Trial in patients with Huntington's disease. It is filed as in vivo, human. To be noted: add on, 2.5 to 20 mg b.i.d., vs placebo. The procedure:
A typical trial to establish the effect of the compounds according to the invention on chorea, voluntary motor performance, and functional disability in patients with Huntington's disease encompasses 32 genetically diagnosed patients. […] The dose of blinded medication is titrated over a period of 3 weeks in a range from 2.5 to 20 mg b.i.d. Then the medication is held constant for 1 week. Assessments are performed in the week before and at the last day of the trial. Chorea is scored using the abnormal involuntary movement scale (AIMS, W. Guy, in: ECDEU assessment manual. Rockville Md.: US dept. of health, education and welfare, 1976: 534-537), the unified Huntington's disease rating scale (UHDRS, Huntington study group, 1996, Movement Disord, 11: 136-42), and judgement of video recordings. Voluntary motor performance is assessed using the UHDRS motor scale. Patients and their partners complete a questionnaire regarding functional disability.

The next experiment has as its system Weaver mutant mouse. As to the kind of experiment: Weaver mutant mouse (locomotor activity). The settings on record: in vivo. An excerpt: Typical genetic models in mutant animals are the Campus Syndrome in the Pietrain pig according to A. Richter et al. (Exp. Neurology, 1995; 134: 205-213) or the Weaver mutant mouse according to J. R. Simon and B. Ghetti (Mol. Neurobiol., 1994; 9: 183-189). In the Campus Syndrome model, these mutant pigs show a high-frequency tremor when standing and during locomotion, but not while lying at rest. Assessment of tremor is made by accelerometric recording. In the Weaver mutant mouse, degenerative cerebellar atrophy is fould in association with tremor, gait instability, and toppling over the sides after a few steps.

The test system of experiment [3] is rats with nigrostriatal degeneration. Nature of the experiment: Striatonigral degeneration in the rat, turning behavior. It is filed as in vivo. To be noted: 6-hydroxydopamine plus quinolinic acid lesioned rats. An excerpt: Another more recent animal model is the striatonigral degeneration approach in the rat according to […] et al., J. Neural Transm. Suppl., 1999; 55: 103-113. Rats receive an unilateral injection of 6-hydroxydopamine into the left medial forebrain bundle followed by an injection of quinolinic acid into the ipsilateral striatum inducing nigrostriatal degeneration. The degeneration results in turning behavior to a challenge with dopaminomimetics such as apomorphine or amphetamine. Turning behavior is measured by an automated recorder.

A further experiment deals with dopamine D3 receptor (Homo sapiens, UniProt P35462).
Another experiment deals with dopamine D2 receptor (Homo sapiens, UniProt P14416). As to the kind of experiment: D2 antagonism. The settings on record: under increased doses.
The test system of experiment [4] is reserpinized rat or mouse. Nature of the experiment: Reserpinized rat or mouse (akinesia). The class given is in vivo. To be noted: 24 h after reserpine; for distance travelled and time active: activity meters. Here is the method: A typical animal model is the reserpinized rat or mouse (e.g. […]. Neural Transm.-Park. Dis. Dement. Sect., 1994; 7: 133-142; M. Gossel et al., J. Neural Transm.-Park. Dis. Dement. Sect., 1995; 10: 27-39; N. R. Hughes et al., Mov. Disord., 1998; 13: 228-233). Reserpine is a potent depleter of monoamines and produces nearly complete akinesia in both species. Prominent 24 h after application, the distance travelled and the time active is nearly zero as measured in conventional activity meters.

The subject of experiment [5] is genetically dystonic hamsters. Nature of the experiment: Mutant dystonic hamster. To be noted: in vivo. An excerpt:
A typical animal model is the mutant dystonic hamster according to A. Richter and […], Prog. Neurobiol. 1998; 54: 633-677. In this genetically dystonic hamsters, dystonic attacks are provoked by taking the animal from the home cage and placing it on a balance. The dystonic syndrome consists of a sequence of abnormal movements, and the severity of the single symptoms is rated by a scoring system.

The next experiment concerns the target T1, 5-HT1A receptor (Homo sapiens, UniProt P08908).
T1 sequence (P08908 1-422): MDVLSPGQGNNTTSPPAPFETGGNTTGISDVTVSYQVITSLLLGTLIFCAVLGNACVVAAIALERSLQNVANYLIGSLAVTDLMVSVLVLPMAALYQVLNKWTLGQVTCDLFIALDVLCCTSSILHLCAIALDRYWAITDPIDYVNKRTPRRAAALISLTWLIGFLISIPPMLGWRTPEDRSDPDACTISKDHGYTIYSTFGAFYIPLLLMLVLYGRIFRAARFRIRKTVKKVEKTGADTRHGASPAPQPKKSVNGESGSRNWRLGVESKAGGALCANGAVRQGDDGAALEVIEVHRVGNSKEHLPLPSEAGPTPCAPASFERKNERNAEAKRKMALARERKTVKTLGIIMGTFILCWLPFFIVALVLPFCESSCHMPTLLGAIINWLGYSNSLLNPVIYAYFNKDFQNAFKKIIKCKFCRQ
To be noted: compared with buspirone (IC50 […] nmol/l).

For experiment [6], the system named is oxotremorine-induced tremor. Nature of the experiment: Oxotremorine-induced tremor. To be noted: in vivo. The procedure:
A typical animal model for drug-induced tremors is the oxotremorine-induced tremor (e.g. H. Hallberg and O. Almgren, Acta Physiol. Scand., 1987; 129: 407-13; J. G. Clement and W. R. Dyck, J. Pharmacol. Meth., 1989; 22: 25-36). Oxotremorine induces tremor which is measured by a rating scale.

In experiment [7] the test system is neuroleptics sensitized monkey. As to the kind of experiment: Neuroleptics sensitized monkey. The class given is in vivo. The settings on record: after haloperidol challenge. The source says:
Another typical animal model is the neuroleptics sensitized monkey according to D. E. Casey, Psychopharmacology, 1996; 124: 134-140. Monkeys treated repeatedly with conventional neuroleptics are highly sensitive to a subsequent challenge dose of neuroleptic drugs. When challenged, the monkeys immediately show extrapyramidal motor side effects such as dystonia, dyskinesias, akathisia, and bradykinesia which are rated by a scoring system. The conventional neuroleptic drug haloperidol is given as a challenge.

Sequence of dopamine D2 receptor (P14416 whole entry, species assumed): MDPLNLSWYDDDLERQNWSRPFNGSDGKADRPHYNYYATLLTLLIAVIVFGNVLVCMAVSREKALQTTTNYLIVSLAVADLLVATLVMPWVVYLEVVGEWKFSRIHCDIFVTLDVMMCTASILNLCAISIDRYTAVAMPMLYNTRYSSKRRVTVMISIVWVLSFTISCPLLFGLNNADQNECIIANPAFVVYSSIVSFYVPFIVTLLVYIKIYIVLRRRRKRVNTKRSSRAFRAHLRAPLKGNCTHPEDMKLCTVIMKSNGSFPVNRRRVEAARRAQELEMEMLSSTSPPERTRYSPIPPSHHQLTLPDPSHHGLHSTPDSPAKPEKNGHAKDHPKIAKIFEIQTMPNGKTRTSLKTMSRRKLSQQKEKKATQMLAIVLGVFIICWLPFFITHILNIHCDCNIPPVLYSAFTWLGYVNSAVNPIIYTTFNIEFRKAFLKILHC
Sequence of dopamine D3 receptor (P35462 whole entry, species assumed): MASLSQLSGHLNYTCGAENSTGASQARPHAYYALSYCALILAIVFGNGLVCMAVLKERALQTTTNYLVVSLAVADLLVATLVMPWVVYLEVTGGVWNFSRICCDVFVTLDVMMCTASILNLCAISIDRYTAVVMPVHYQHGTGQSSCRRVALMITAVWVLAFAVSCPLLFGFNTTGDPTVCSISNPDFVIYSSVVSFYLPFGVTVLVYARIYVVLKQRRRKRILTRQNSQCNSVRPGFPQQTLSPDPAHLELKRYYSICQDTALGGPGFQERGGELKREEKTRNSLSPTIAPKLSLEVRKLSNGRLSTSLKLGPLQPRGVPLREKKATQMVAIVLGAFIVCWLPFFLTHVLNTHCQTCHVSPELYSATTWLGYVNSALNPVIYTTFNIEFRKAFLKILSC

As to `Fc1ccc(-c2cncc(CNCC3CCc4ccccc4O3)c2)cc1` (racemic) [(R/S)-(−/+)-2-[5-(4-fluorophenyl)-3-pyridylmethylaminomethyl]-chromane], in experiment [1], the “prevention of catalepsy induced by conventional antidopaminergic drugs” value is recorded as “able to prevent catalepsy” and the “reversal of already existing catalepsy induced by conventional antidopaminergic drugs such as haloperidol” value is on record as “reverses already existing catalepsy”. In addition, the “voluntary and involuntary motor performance (AIMS, UHDRS, video)” value in experiment [2] is “significant improvement”. In addition, the locomotor activity result in the experiment on Weaver mutant mouse was “enhance locomotor activity”. In addition, the “turning behavior induced by apomorphine or amphetamine” value in [3] is “dose-dependently antagonized”. For the same compound, the “affinity to the dopamine D3 receptor” value on dopamine D3 receptor is “high affinity”. The D2 antagonism result on dopamine D2 receptor is reported as “exhibit a D2 antagonism”. For the same compound, in experiment [4], the akinesia entry is reported as “dose-dependently reduced akinesia”; the “distance travelled and time active” value was “restored distance travelled and time active to about the level of normal animals”. In experiment [5], the “severity of dystonic symptoms (score)” value is reported as “dose-dependently reduce the severity of dystonic symptoms”. Besides, the “agonist potency at the 5-HT1A receptor in contrast to buspirone” value at 5-HT1A receptor is “more potent agonists”. Besides, in experiment [6], the “oxotremorine-induced tremors (rating scale)” value is on record as “inhibit oxotremorine-induced tremors”. Moreover, the “extrapyramidal motor side effects (dystonia, dyskinesias, akathisia, bradykinesia; score)” value in [7] is reported as “dose-dependently reduce the extrapyramidal motor side effects”.
With `Fc1ccc(-c2cncc(CNC[C@@H]3CCc4ccccc4O3)c2)cc1` [(S)-(+)-2-[5-(4-fluorophenyl)-3-pyridylmethylaminomethyl]-chromane], in [1], the “prevention of catalepsy induced by conventional antidopaminergic drugs” value was “able to prevent catalepsy” and the “reversal of already existing catalepsy induced by conventional antidopaminergic drugs such as haloperidol” value is recorded as “reverses already existing catalepsy”. Moreover, the “voluntary and involuntary motor performance (AIMS, UHDRS, video)” value in experiment [2] is listed as “significant improvement”. For the same compound, in the experiment on Weaver mutant mouse, the locomotor activity result is “enhance locomotor activity”. Further, the “turning behavior induced by apomorphine or amphetamine” value in experiment [3] was “dose-dependently antagonized”. Besides, the “affinity to the dopamine D3 receptor” value at dopamine D3 receptor was “high affinity”. Further, on dopamine D2 receptor, the D2 antagonism result is “exhibit a D2 antagonism”. Also, in [4], the akinesia result is on record as “dose-dependently reduced akinesia”; the “distance travelled and time active” value was “restored distance travelled and time active to about the level of normal animals”. Also, the “severity of dystonic symptoms (score)” value in experiment [5] is recorded as “dose-dependently reduce the severity of dystonic symptoms”. Besides, the “agonist potency at the 5-HT1A receptor in contrast to buspirone” value on 5-HT1A receptor is “more potent agonists”. The “oxotremorine-induced tremors (rating scale)” value in experiment [6] was “inhibit oxotremorine-induced tremors”. For the same compound, the “extrapyramidal motor side effects (dystonia, dyskinesias, akathisia, bradykinesia; score)” value in experiment [7] was “dose-dependently reduce the extrapyramidal motor side effects”.
